This is an account of results in ChEMBL document CHEMBL1201862, “PubChem BioAssay data set” (2004).

Test systems include A498; HCT-116; HCT-15; HOP-92; HT-29; LOX IMVI; M14; MCF7; OVCAR-5; PC-3; SK-MEL-28; SK-MEL-5; SK-OV-3; U-251; UACC-257.
Holding throughout (test): NCI tumour cell line growth inhibition, 48 h

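Each compound was tested at five concentrations against cells in 96-well plates for 48 hours. GI50 = concentration required for 50% inhibition of growth.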 Active and inactive are the calls of the source. Rule as the data show it: active = GI50 up to about 1.1 µM and inactive = higher.

Consider `Nc1nc(Cl)c(N)c(NCC2(CO)CC(O)C2)n1` (stereo not drawn), for which the GI50 is 67.5 µM (inactive) in the test with A498; > 100 µM (inactive) in the test on HCT-116; greater than 100 µM in the test on HCT-15; > 100 µM (inactive) in the test with HOP-92; > 100 µM (inactive) in the test with HT-29; > 100 µM (inactive) in the test with LOX IMVI. The GI50 in the test with M14, in the test with MCF7, in the test with OVCAR-5, in the test on PC-3, in the test on SK-MEL-28 and with SK-MEL-5 was > 100 µM (inactive) each time. For the same compound, the GI50 with SK-OV-3, in the test with U-251 and with UACC-257 was > 100 µM (inactive) in each case.

On to `COC(=O)c1ccccc1CC1Cc2ccc3c(c2C1)CCC3` (stereo not drawn), for which the GI50 in the test on A498 was > 100 µM (inactive); in the test on HCT-116, 23.3 µM (inactive); in the test with HCT-15, 20.4 µM; in the test on HOP-92 it was 20.1 µM (inactive); with HT-29, 20 µM (inactive); in the test on LOX IMVI it was 16 µM (inactive). In addition, the GI50 is 33.9 µM (inactive) with M14; 14.3 µM (inactive) with MCF7; 29.5 µM (inactive) in the test on OVCAR-5; 29.2 µM (inactive) in the test with PC-3; 46 µM (inactive) in the test with SK-MEL-28; 22.1 µM (inactive) in the test with SK-MEL-5. Also, the GI50 in the test on SK-OV-3 was 32.7 µM (inactive); in the test on U-251 it was 28.6 µM (inactive); in the test on UACC-257, 10.4 µM (inactive).

For `CSc1nnc(SC)nn1`, the GI50 in the test with A498 is > 100 µM (inactive); in the test on HCT-116, 11 µM (inactive); in the test with HCT-15 it was 19.2 µM; in the test with HOP-92, 3.84 µM (inactive); in the test on HT-29 it was 18.9 µM (inactive); in the test on LOX IMVI, 19.6 µM (inactive). In addition, the GI50 in the test with M14 was 15.5 µM (inactive); with MCF7, 17 µM (inactive); in the test with OVCAR-5 it was 18.1 µM (inactive); in the test with PC-3, 18.5 µM (inactive); with SK-MEL-5 it was 15.8 µM (inactive); in the test on SK-OV-3, 21.4 µM (inactive). In addition, the GI50 in the test on U-251 is 20.6 µM (inactive); with UACC-257 it was 16.6 µM (inactive).

In the case of `CCCCCCCCCCCCNC(C)=O`, the GI50 was 20 µM (inactive) in the test with A498; 17.9 µM (inactive) in the test with HCT-116; 16.9 µM with HCT-15; 2.26 µM (inactive) with HOP-92; 19.5 µM (inactive) in the test with HT-29; 6.85 µM (inactive) with LOX IMVI. The GI50 was 17 µM (inactive) in the test on M14; 17.1 µM (inactive) with MCF7; 14.5 µM (inactive) with PC-3; 17.6 µM (inactive) with SK-MEL-28; 16.8 µM (inactive) with SK-MEL-5; 15.7 µM (inactive) in the test with SK-OV-3. The GI50 was 15.4 µM (inactive) with U-251 and 23.2 µM (inactive) in the test with UACC-257.

Consider `CCC1CN2CCc3c([nH]c4ccccc34)[C@@](C(=O)OC)(c3cc4c(cc3OC)N(C)C3C(O)(C(=O)OC)C(C(=O)OC)C5(CC)C=CCN6CCC43C65)C[C@@H](C2)[C@@H]1C(C)(C)C` (stereo partly drawn), for which the GI50 in the test with A498 was 0.306 µM (active); in the test on HCT-116 it was 0.312 µM (active); in the test with HCT-15, 0.396 µM; with HOP-92 it was 1.03 µM (active); in the test on HT-29 it was 0.328 µM (active); in the test with LOX IMVI, 0.34 µM (active). Further, the GI50 with M14 is 0.401 µM (active); with MCF7, 0.461 µM (active); in the test with OVCAR-5, 2.68 µM (inactive); in the test on PC-3, 0.286 µM (active); in the test with SK-MEL-28 it was 0.652 µM (active); with SK-MEL-5 it was 0.274 µM (active). For the same compound, the GI50 in the test with SK-OV-3 is 1 µM (active); with U-251 it was 0.417 µM (active); in the test with UACC-257, 0.514 µM (active).

On to `O=[N+]([O-])c1cccc([N+](=O)[O-])c1S(=O)(=O)c1ccccc1`, for which the GI50 was 18.8 µM (inactive) in the test with A498; 1.89 µM (inactive) in the test with HCT-116; 1.92 µM in the test with HCT-15; 3.76 µM (inactive) with HOP-92; 7.67 µM (inactive) in the test on HT-29; 1.84 µM (inactive) with LOX IMVI. The GI50 was 2.27 µM (inactive) with M14; 5.87 µM (inactive) with MCF7; 3.66 µM (inactive) with OVCAR-5; 11.9 µM (inactive) in the test with PC-3; 4.16 µM (inactive) with SK-MEL-28; 14.1 µM (inactive) in the test with SK-MEL-5. The GI50 in the test with SK-OV-3 is 16.8 µM (inactive); in the test with U-251 it was 8.95 µM (inactive); in the test on UACC-257 it was 13.2 µM (inactive).

Turning to `COC1/C=C/C(C)C(C(C)C(OC)C(C)CCC(=O)C(C)C(CC(=O)O)OC)OC(=O)/C=C/C=C(\C)CC(OC)C(OC)C2=CC(=O)O[C@@H](C(C)C(OC)CC(OC)/C=C/C(C)C(O)C1)[C@H]2O` (stereo partly drawn), the GI50 is 0.0815 µM (active) in the test with A498; 0.00714 µM (active) with HCT-116; 0.0611 µM with HCT-15; 0.0339 µM (active) in the test on HOP-92; 0.026 µM (active) in the test on HT-29; 0.0188 µM (active) in the test on LOX IMVI. For the same compound, the GI50 is 0.0286 µM (active) in the test with M14; 0.0715 µM (active) in the test on MCF7; 0.265 µM (active) with OVCAR-5; 0.0382 µM (active) in the test on PC-3; 0.0212 µM (active) with SK-MEL-28; 0.0536 µM (active) in the test with SK-MEL-5. In addition, the GI50 is 0.0879 µM (active) with SK-OV-3, 0.0416 µM (active) in the test with U-251 and 0.0993 µM (active) in the test with UACC-257.

With `Oc1ccc(-c2nc3ccccc3s2)cc1`, the GI50 in the test on A498 was 47.4 µM (inactive); in the test with HCT-116, 22.4 µM (inactive); with HCT-15, 36 µM; in the test with HOP-92, 35.9 µM (inactive); with HT-29 it was 42.3 µM (inactive); in the test with LOX IMVI, 21.4 µM (inactive). Moreover, the GI50 with M14 was 44.2 µM (inactive); in the test on MCF7, 33.6 µM (inactive); in the test with OVCAR-5, 49.8 µM (inactive); with PC-3, 32.1 µM (inactive); in the test on SK-MEL-28 it was 53.3 µM (inactive); in the test on SK-OV-3, 32.1 µM (inactive). In addition, the figures for the GI50 in the test with U-251 and with UACC-257 were 42.4 µM (inactive) and 31 µM (inactive), respectively.

In the case of `Cc1cc2c(c(O)c1-c1c(C)cc(O)c3c1C(=O)C=CC3=O)C(=O)C=CC2=O`, the GI50 in the test with A498 was 6.76 µM (inactive); in the test on HCT-116, 1.21 µM (inactive); in the test on HCT-15, 1.52 µM; in the test on HOP-92, 0.413 µM (active); in the test with HT-29, 1.58 µM (inactive); in the test with LOX IMVI it was 1.11 µM (active). Further, the GI50 was 2.18 µM (inactive) with M14; 0.966 µM (active) in the test on MCF7; 2.62 µM (inactive) in the test on OVCAR-5; 4.02 µM (inactive) with PC-3; 0.369 µM (active) in the test with SK-MEL-28; 4.01 µM (inactive) in the test on SK-MEL-5. The GI50 with SK-OV-3 is 15.6 µM (inactive); in the test on U-251 it was 4.03 µM (inactive); with UACC-257 it was 1.62 µM (inactive).

On to `O=c1[nH]nc(Cc2ccc(Cl)cc2)n1O`, for which the GI50 with A498 is > 100 µM (inactive); in the test on HCT-116, > 100 µM (inactive); in the test with HCT-15, greater than 100 µM; with HOP-92, > 100 µM (inactive); with HT-29, > 100 µM (inactive); with LOX IMVI, > 100 µM (inactive). In addition, the GI50 in the test with M14, in the test with MCF7, with OVCAR-5, with PC-3, in the test with SK-MEL-28 and with SK-MEL-5 was > 100 µM (inactive) in each case. Further, the GI50 with SK-OV-3, with U-251 and in the test with UACC-257 was > 100 µM (inactive) in each case.

In the case of `[O-]c1c[n+](CCCC[n+]2cc([O-])on2)no1`, the GI50 with A498 is > 100 µM (inactive); with HCT-116 it was > 100 µM (inactive); with HCT-15 it was greater than 100 µM; in the test on HOP-92, > 100 µM (inactive); in the test on HT-29, > 100 µM (inactive); in the test with LOX IMVI it was > 100 µM (inactive). The GI50 in the test on M14, in the test with MCF7, with OVCAR-5, in the test on PC-3, with SK-MEL-28 and in the test on SK-MEL-5 was > 100 µM (inactive) each time. Further, the GI50 in the test on SK-OV-3, in the test with U-251 and in the test on UACC-257 was > 100 µM (inactive) throughout.

As for `CSc1nc(SC)c2c(CO)c(Br)n(Cc3ccccc3)c2n1`, the GI50 is 4.32 µM (inactive) in the test on A498; 26.4 µM (inactive) in the test with HCT-116; 70 µM in the test with HCT-15; 17.2 µM (inactive) in the test with HOP-92; 33.8 µM (inactive) with HT-29; 25.3 µM (inactive) with LOX IMVI. Also, the GI50 with M14 is 83.2 µM (inactive); in the test with MCF7, 24.6 µM (inactive); in the test with OVCAR-5, 56.9 µM (inactive); in the test on PC-3, 43.1 µM (inactive); with SK-MEL-28, 47.9 µM (inactive); in the test with SK-MEL-5 it was 48.9 µM (inactive). The GI50 in the test with SK-OV-3 was 20.2 µM (inactive); in the test on U-251, 12.6 µM (inactive).

As to `O=C(O)c1ccc(OCc2nc3cc(C(F)(F)F)ccc3nc2-c2ccccc2)cc1`, the GI50 in the test on A498 is > 100 µM (inactive); in the test on HCT-116 it was 36.9 µM (inactive); in the test with HCT-15, 39.1 µM; with HOP-92 it was 29 µM (inactive); in the test on HT-29 it was 32.1 µM (inactive); with LOX IMVI, 40 µM (inactive). Moreover, the GI50 in the test with M14 is 80.4 µM (inactive); in the test on MCF7, 45 µM (inactive); with OVCAR-5 it was > 100 µM (inactive); in the test on PC-3 it was 53.8 µM (inactive); in the test on SK-MEL-28, 61 µM (inactive); in the test with SK-MEL-5 it was 32.1 µM (inactive). Also, the GI50 in the test with U-251 is 44.2 µM (inactive); with UACC-257, 78.7 µM (inactive).

As to `C/C(=C/CNc1ncnc2c1ncn2CCC#N)CO`, the GI50 with A498, in the test with HCT-116, in the test with HOP-92, with HT-29, in the test on LOX IMVI and in the test with M14 was > 100 µM (inactive) in each case. The GI50 in the test with MCF7, in the test on OVCAR-5, with PC-3, with SK-MEL-28, in the test on SK-MEL-5 and in the test on SK-OV-3 was > 100 µM (inactive) in each case. Moreover, the GI50 in the test on UACC-257 is > 100 µM (inactive).
